Legend:
Assay in all cases: relative viability (nuclei count vs DMSO), 5 days (fraction); higher = more cells survive
[1] = tested on: NCI-H1755
In short: (§1)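 The day after seeding in 1536-well plates, lung cancer cell lines were treated by pin tool with a single drug, or with a fixed anchor-drug dose together with five library-drug doses (not always all listed) in √10 steps. After 5 days, a combined fix-and-stain solution (final 0.05% Triton X-100, 1% formaldehyde, 1 ug/ml Hoechst) was added. Nuclei counted on 4× images gave relative viability as treated counts over vehicle counts, reported as the median of duplicate plates.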

[2] = tested on: NCI-H1395
In short: as §1

[3] = tested on: NCI-H2170
In short: as §1

[4] = tested on: UMC-11
In short: as §1

[5] = tested on: NCI-H647
In short: as §1

[6] = tested on: NCI-H2009
In short: as §1

[7] = tested on: HCC-15
In short: as §1

[8] = tested on: NCI-H522
In short: as §1

[9] = tested on: HARA
In short: as §1

[10] = tested on: NCI-H2228
In short: as §1

[11] = tested on: NCI-H1355
In short: as §1

For `CCN(CC)CCCCNc1ncc2cc(-c3cc(OC)cc(OC)c3)c(NC(=O)NC(C)(C)C)nc2n1` + CC(=O)Nc1cccc(-n2c(=O)n(C3CC3)c(=O)c3c(Nc4ccc(I)cc4F)n(C)c(=O)c(C)c32)c1 [Trametinib] (partner 0.02 µM), the relative viability ([1]; first compound 0.01 µM) was 0.83, the relative viability ([1]; first compound 0.03162 µM) was 0.776 and the relative viability ([1]; first compound 0.1 µM) was 0.759. For the same molecule, the relative viability ([1]; first compound 0.3162 µM) was 0.827, the relative viability ([1]; first compound 1 µM) was 0.55 and the relative viability ([2]; first compound 0.01 µM) was 1.05. The relative viability ([2]; first compound 0.03162 µM) was 0.918, the relative viability ([2]; first compound 0.1 µM) was 0.907 and the relative viability ([2]; first compound 0.3162 µM) was 0.63. The relative viability ([2]; first compound 1 µM) was 0.568, the relative viability ([3]; first compound 0.01 µM) was 0.987 and the relative viability ([3]; first compound 0.03162 µM) was 0.929. The relative viability ([3]; first compound 0.1 µM) was 0.894, the relative viability ([3]; first compound 0.3162 µM) was 1 and the relative viability ([3]; first compound 1 µM) was 0.719. The relative viability ([4]; first compound 0.01 µM) was 0.686, the relative viability ([4]; first compound 0.03162 µM) was 0.483 and the relative viability ([4]; first compound 0.1 µM) was 0.593. The relative viability ([4]; first compound 0.3162 µM) was 0.764, the relative viability ([4]; first compound 1 µM) was 0.695 and the relative viability ([5]; first compound 0.01 µM) was 0.382. It also gave a relative viability ([5]; first compound 0.03162 µM) of 0.517, a relative viability ([5]; first compound 0.1 µM) of 0.512 and a relative viability ([5]; first compound 0.3162 µM) of 0.456. It also gave a relative viability ([5]; first compound 1 µM) of 0.267, a relative viability ([6]; first compound 0.01 µM) of 0.264 and a relative viability ([6]; first compound 0.03162 µM) of 0.244. The relative viability ([6]; first compound 0.1 µM) was 0.266, the relative viability ([6]; first compound 0.3162 µM) was 0.254 and the relative viability ([6]; first compound 1 µM) was 0.192. It also gave a relative viability ([7]; first compound 0.01 µM) of 0.427, a relative viability ([7]; first compound 0.03162 µM) of 0.367 and a relative viability ([7]; first compound 0.1 µM) of 0.414. For the same molecule, the relative viability ([7]; first compound 0.3162 µM) was 0.42, the relative viability ([7]; first compound 1 µM) was 0.361 and the relative viability ([8]; first compound 0.01 µM) was 0.799. It also gave a relative viability ([8]; first compound 0.03162 µM) of 0.772, a relative viability ([8]; first compound 0.1 µM) of 0.787 and a relative viability ([8]; first compound 0.3162 µM) of 0.664. The relative viability ([8]; first compound 1 µM) was 0.883, the relative viability ([9]; first compound 0.01 µM) was 0.589 and the relative viability ([9]; first compound 0.03162 µM) was 0.632. The relative viability ([9]; first compound 0.1 µM) was 0.645, the relative viability ([9]; first compound 0.3162 µM) was 0.579 and the relative viability ([9]; first compound 1 µM) was 0.466. For the same molecule, the relative viability ([10]; first compound 0.01 µM) was 0.449, the relative viability ([10]; first compound 0.03162 µM) was 0.551 and the relative viability ([10]; first compound 0.1 µM) was 0.311. It also gave a relative viability ([10]; first compound 0.3162 µM) of 0.543, a relative viability ([10]; first compound 1 µM) of 0.309 and a relative viability ([11]; first compound 0.01 µM) of 0.462. For the same molecule, the relative viability ([11]; first compound 0.03162 µM) was 0.436, the relative viability ([11]; first compound 0.1 µM) was 0.479 and the relative viability ([11]; first compound 0.3162 µM) was 0.502. The relative viability ([11]; first compound 1 µM) was 0.382.
